Assay: Solubility of processed ginseng extract (ginsenosides Rg3 and Rh2 by HPLC) in solvents and dissolution media
Assay type: physicochemical
Protocol: Processed ginseng extracts were used as natural product extracts of the present invention, and the processed ginseng extracts were prepared by the methods disclosed in Korean Patent Nos. 1595426 and 1966117. Among these, a processed ginseng extract containing 13 wt% of ginsenoside Rg3 and 7 wt% of ginsenoside Rh2 was used.
To investigate the solubility of the processed ginseng extract of the present invention, isopropanol, ethanol, water, and a pH 1.2 buffer, a pH 4.0 buffer, and a pH 6.8 buffer, which are dissolution media disclosed in the Korean Pharmacopoeia, were used as solvents. After 500 mg of the processed ginseng extract was added to 2 g of each solvent, stirring was performed at 50 rpm and 37°C for 18 hours, thereby obtaining each sample. Thereafter, a filtrate obtained by filtration of each sample through a 0.45-µm polyvinylidene fluoride (PVDF) syringe filter was analyzed by high performance liquid chromatography (HPLC) to investigate the solubility of ginsenosides Rg3 and Rh2 contained in the processed ginseng extract. The results are shown in Table 1 below. • HPLC Conditions were as follows: • Column: C18, 1.8 µm, 2.1x50 mm • Column Temperature: 50°C • Detector: UV 203 nm • Flow rate: 0.6 ml/min • Amount of injection: 2 µl • Run time: About 14 min • Mobile phase: distilled water: acetonitrile =57:43 (v/v) TABLE 1

[1] = Ethanol, 500 mg processed ginseng extract in 2 g solvent, 50 rpm, 37°C, 18 hours
[2] = Isopropanol, 500 mg processed ginseng extract in 2 g solvent, 50 rpm, 37°C, 18 hours
[3] = Water, 500 mg processed ginseng extract in 2 g solvent, 50 rpm, 37°C, 18 hours
[4] = pH 1.2 buffer, 500 mg processed ginseng extract in 2 g solvent, 50 rpm, 37°C, 18 hours
[5] = pH 4.0 buffer, 500 mg processed ginseng extract in 2 g solvent, 50 rpm, 37°C, 18 hours
[6] = pH 6.8 buffer, 500 mg processed ginseng extract in 2 g solvent, 50 rpm, 37°C, 18 hours
[7] = in water, a pH 1.2 buffer, or a pH 4.0 buffer

Structure (SMILES) | solubility [1] | solubility [2] | solubility [3] | solubility [4] | solubility [5] | solubility [6] | solubility [7]
CC(C)=CCC[C@](C)(O)[C@H]1CC[C@]2(C)[C@@H]1[C@H](O)C[C@@H]1[C@@]3(C)CC[C@H](O[C@@H]4O[C@H](CO)[C@@H](O)[C@H](O)[C@H]4O[C@@H]4O[C@H](CO)[C@@H](O)[C@H](O)[C@H]4O)C(C)(C)[C@@H]3CC[C@]12C [Ginsenoside Rg3 R-form, Ginsenoside Rg3] | 5.45 mg/g | 4.72 mg/g | 0.05 mg/g | 0.01 mg/g | 0.05 mg/g | 0.31 mg/g | 
CC(C)=CCC[C@](C)(O)[C@H]1CC[C@]2(C)[C@@H]1[C@H](O)C[C@@H]1[C@@]3(C)CC[C@H](O[C@@H]4O[C@H](CO)[C@@H](O)[C@H](O)[C@H]4O[C@@H]4O[C@H](CO)[C@@H](O)[C@H](O)[C@H]4O)C(C)(C)[C@@H]3CC[C@]12C [Ginsenoside Rg3 S-form, Ginsenoside Rg3] | 7.52 mg/g | 7.43 mg/g | 0.21 mg/g | 0.01 mg/g | 0.28 mg/g | 1.23 mg/g | 
CC(C)=CCC[C@](C)(O)[C@H]1CC[C@]2(C)[C@@H]1[C@H](O)C[C@@H]1[C@@]3(C)CC[C@H](O[C@@H]4O[C@H](CO)[C@@H](O)[C@H](O)[C@H]4O)C(C)(C)[C@@H]3CC[C@]12C [Ginsenoside Rh2 R-form, Ginsenoside Rh2] | 2.55 mg/g | 2.47 mg/g | 0.00 mg/g | 0.00 mg/g | 0.00 mg/g | 0.09 mg/g | 
CC(C)=CCC[C@](C)(O)[C@H]1CC[C@]2(C)[C@@H]1[C@H](O)C[C@@H]1[C@@]3(C)CC[C@H](O[C@@H]4O[C@H](CO)[C@@H](O)[C@H](O)[C@H]4O)C(C)(C)[C@@H]3CC[C@]12C [Ginsenoside Rh2 S-form, Ginsenoside Rh2] | 3.96 mg/g | 3.99 mg/g | 0.10 mg/g | 0.00 mg/g | 0.13 mg/g | 0.60 mg/g | 
CC(C)=CCC[C@](C)(O)[C@H]1CC[C@]2(C)[C@@H]1[C@H](O)C[C@@H]1[C@@]3(C)CC[C@H](O[C@@H]4O[C@H](CO)[C@@H](O)[C@H](O)[C@H]4O[C@@H]4O[C@H](CO)[C@@H](O)[C@H](O)[C@H]4O)C(C)(C)[C@@H]3CC[C@]12C [ginsenoside Rg3] |  |  |  |  |  |  | less than 0.3 mg/g
CC(C)=CCC[C@](C)(O)[C@H]1CC[C@]2(C)[C@@H]1[C@H](O)C[C@@H]1[C@@]3(C)CC[C@H](O[C@@H]4O[C@H](CO)[C@@H](O)[C@H](O)[C@H]4O)C(C)(C)[C@@H]3CC[C@]12C [ginsenoside Rh2] |  |  |  |  |  |  | less than 0.3 mg/g
